Results on two molecules are retold here after patent US10618918B2, “Substituted boronic acids as antimicrobials” (priority 2015, dated 2020).

Where two headings read alike, the source gives them in different places.

Test [1] concerns KP1004 KPC-2. Kind of test: Biapenem potentiation (MPC@1), strain KP1004 KPC-2. The test is classed as cell-based. The following applies: minimum BLI concentration inhibiting growth with biapenem 1 μg/mL; tested up to 40 μg/mL. How it is done: (§1) Biapenem was present in the test medium at 1 μg/mL. […] Table 3 summarizes the BLI potency of biapenem potentiation (MPC@1) for two strains overexpressing class A (KPC) and class D (OXA-48) carbapenemases. Biapenem MIC for each strain is also shown.

Test [2] relates to KP1086 OXA-48. As to the kind of experiment: Biapenem potentiation (MPC@1), strain KP1086 OXA-48. The test is classed as cell-based. The following applies: minimum BLI concentration inhibiting growth with biapenem 1 μg/mL; tested up to 40 μg/mL. On the procedure: as §1
Test [3] has as its system AB1053 OXA-72. Kind of test: Meropenem potentiation (MPC@8), strain AB1053 OXA-72. The format is cell-based, Acinetobacter baumannii. The following applies: minimum BLI concentration inhibiting growth with meropenem 8 μg/mL; tested up to 20 μg/mL.
Test [4] deals with AB1054 OXA-23. As to the kind of experiment: Meropenem potentiation (MPC@8), strain AB1054 OXA-23. The following applies: minimum BLI concentration inhibiting growth with meropenem 8 μg/mL; tested up to 20 μg/mL. The format is cell-based, Acinetobacter baumannii.
The target of test [5] is T1, purified class A, C and D enzymes (β-lactamases) (Acinetobacter baumannii, UniProt Q9L4P2).
T1 construct: rows headed: Ki (OXA-23, NCF), uM; other: purified OXA-23; nitrocefin (NCF) as reporter substrate
Kind of test: biochemical. The test is classed as biochemical. The following applies: purified OXA-23; nitrocefin (NCF) as reporter substrate.

For test [6], the target named is purified class A, C and D enzymes (β-lactamases) (Enterobacter cloacae, UniProt P05364). Kind of test: biochemical. The format is biochemical.
The target of test [7] is purified class A, C and D enzymes (β-lactamases) (Escherichia coli, UniProt Q9L5C7). As to the kind of experiment: biochemical. As to conditions: purified CTX-M-14; nitrocefin (NCF) as reporter substrate. The test is classed as biochemical.
Test [8] concerns the target purified class A, C and D enzymes (β-lactamases) (Klebsiella pneumoniae, UniProt Q6XEC0). As to the kind of experiment: biochemical. The following applies: purified OXA-48; nitrocefin (NCF) as reporter substrate. The test is classed as biochemical.
Test [9] concerns the target purified class A, C and D enzymes (β-lactamases) (Klebsiella pneumoniae, UniProt Q9F663). As to the kind of experiment: biochemical. The format is biochemical. As to conditions: purified KPC-2; nitrocefin (NCF) as reporter substrate.
Test [10] has as its target T2, purified class A, C and D enzymes (β-lactamases) (Pseudomonas aeruginosa, UniProt P24735).
T2 construct: rows headed: Ki (Pa-AmpC, NCF), uM; other: purified Pa-AmpC; nitrocefin (NCF) as reporter substrate
As to the kind of experiment: biochemical. The test is classed as biochemical.

Test [11] deals with ECL1002. Kind of test: Aztreonam potentiation (MPC@4), strain ECL1002. As to conditions: minimum BLI concentration inhibiting growth with aztreonam 4 μg/mL; tested up to 40 μg/mL.
Test [12] deals with ec308 SHV-5. As to the kind of experiment: Aztreonam potentiation (MPC@4), strain ec308 SHV-5. As to conditions: minimum BLI concentration inhibiting growth with aztreonam 4 μg/mL; tested up to 40 μg/mL.
The test system of test [13] is ec302 TEM-10. Kind of test: Aztreonam potentiation (MPC@4), strain ec302 TEM-10. As to conditions: minimum BLI concentration inhibiting growth with aztreonam 4 μg/mL; tested up to 40 μg/mL.
Test [14] relates to KP1004 KPC-2. Kind of test: Aztreonam potentiation (MPC@4), strain KP1004 KPC-2. As to conditions: minimum BLI concentration inhibiting growth with aztreonam 4 μg/mL; tested up to 40 μg/mL.
For test [15], the system named is EC1010 CMY-6. Kind of test: Aztreonam potentiation (MPC@4), strain EC1010 CMY-6. The following applies: minimum BLI concentration inhibiting growth with aztreonam 4 μg/mL; tested up to 40 μg/mL.
Test [16] deals with KP1010 SHV-12. As to the kind of experiment: Aztreonam potentiation (MPC@4), strain KP1010 SHV-12. The following applies: minimum BLI concentration inhibiting growth with aztreonam 4 μg/mL; tested up to 40 μg/mL.
Test [17] relates to KP1009 CTX-M-15. Kind of test: Aztreonam potentiation (MPC@4), strain KP1009 CTX-M-15. As to conditions: minimum BLI concentration inhibiting growth with aztreonam 4 μg/mL; tested up to 40 μg/mL.
Test [18] has as its system KP1005 CTX-M-14. As to the kind of experiment: Tigemonam potentiation (MPC@4), strain KP1005 CTX-M-14. As to conditions: minimum BLI concentration inhibiting growth with tigemonam 4 μg/mL; tested up to 40 μg/mL.

purified class A, C and D enzymes (β-lactamases) (Enterobacter cloacae, UniProt P05364), sequence (P05364 21-381): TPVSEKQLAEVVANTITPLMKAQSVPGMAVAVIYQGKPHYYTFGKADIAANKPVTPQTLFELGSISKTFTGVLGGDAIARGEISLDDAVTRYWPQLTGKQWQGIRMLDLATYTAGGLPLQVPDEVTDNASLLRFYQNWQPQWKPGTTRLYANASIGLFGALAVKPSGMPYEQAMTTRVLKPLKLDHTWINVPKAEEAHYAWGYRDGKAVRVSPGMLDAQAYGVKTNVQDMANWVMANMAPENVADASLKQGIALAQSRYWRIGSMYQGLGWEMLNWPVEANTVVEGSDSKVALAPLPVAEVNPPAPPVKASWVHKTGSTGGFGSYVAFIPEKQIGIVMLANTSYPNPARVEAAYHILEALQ
T2 sequence (P24735 whole entry): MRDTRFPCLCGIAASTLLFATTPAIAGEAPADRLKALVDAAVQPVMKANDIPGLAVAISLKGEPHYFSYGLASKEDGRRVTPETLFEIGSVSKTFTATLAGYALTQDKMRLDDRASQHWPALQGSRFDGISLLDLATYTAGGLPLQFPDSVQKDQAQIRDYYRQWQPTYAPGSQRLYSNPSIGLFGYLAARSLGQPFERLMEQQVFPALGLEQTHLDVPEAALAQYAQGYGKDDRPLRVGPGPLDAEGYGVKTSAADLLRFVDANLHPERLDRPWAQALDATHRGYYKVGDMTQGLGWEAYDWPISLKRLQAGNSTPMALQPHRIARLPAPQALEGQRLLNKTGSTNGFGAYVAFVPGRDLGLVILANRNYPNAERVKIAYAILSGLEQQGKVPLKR
purified class A, C and D enzymes (β-lactamases) (Escherichia coli, UniProt Q9L5C7), sequence (Q9L5C7 entry or part of it): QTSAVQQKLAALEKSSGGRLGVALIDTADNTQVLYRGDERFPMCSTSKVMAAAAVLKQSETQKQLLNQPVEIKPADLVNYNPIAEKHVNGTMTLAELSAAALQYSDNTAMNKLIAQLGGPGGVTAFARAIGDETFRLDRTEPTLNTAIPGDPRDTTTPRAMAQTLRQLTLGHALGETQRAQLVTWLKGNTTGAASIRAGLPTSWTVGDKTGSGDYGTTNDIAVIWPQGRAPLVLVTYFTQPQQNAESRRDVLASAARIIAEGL
T1 sequence (Q9L4P2 whole entry): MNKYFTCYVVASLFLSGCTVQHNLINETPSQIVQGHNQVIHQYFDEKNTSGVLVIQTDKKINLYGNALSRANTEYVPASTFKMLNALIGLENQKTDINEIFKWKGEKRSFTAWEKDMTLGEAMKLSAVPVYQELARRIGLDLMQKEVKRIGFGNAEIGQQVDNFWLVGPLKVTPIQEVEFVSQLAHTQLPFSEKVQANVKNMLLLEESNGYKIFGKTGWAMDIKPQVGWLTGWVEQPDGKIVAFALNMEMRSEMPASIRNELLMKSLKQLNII

For `O=C(O)c1c(F)c(F)cc2c1OB(O)CC2` [Compound 35, 6,7-Difluoro-2-hydroxy-3,4-dihydro-1,2-benzoxaborinine-8-carboxylic acid], in test [1], the “BPM MPC1 KP1004 KPC-2” value was “X (X = MPC@1 ≤ 5 μg/mL)”. In addition, the “BPM MPC1 OXA-48 KP1086” value in test [2] was “X (X = MPC@1 ≤ 5 μg/mL)”. Moreover, the “MPM MPC8 AB1053 OXA-72” value in [3] is listed as “X (X = MPC@1 ≤ 5 μg/mL)”. Besides, in [4], the “MPM MPC8 AB1054 OXA-23” value is listed as “X (X = MPC@1 ≤ 5 μg/mL)”. In addition, the Ki (in general, the dissociation constant of the complex between target and ligand, obtained from inhibition or displacement) in test [5] is below 100 nM; in test [10] (purified Pa-AmpC, nitrocefin (NCF) as reporter substrate, read-out: Ki (Pa-AmpC, NCF)) it was below 100 nM. Also, the “Ki (P99, NCF), uM” value in test [6] (purified P99, nitrocefin (NCF) as reporter substrate) was “X (X = Ki ≤ 0.1 μM)”. Moreover, the “Ki (CTX-M-14, NCF), uM” value in [7] was “X (X = Ki ≤ 0.1 μM)”. The “Ki (OXA-48, NCF), uM” value in test [8] is given as “X (X = Ki ≤ 0.1 μM)”. Also, in test [9], the “Ki (KPC-2, NCF), uM” value is on record as “X (X = Ki ≤ 0.1 μM)”. In addition, in test [11], the “AZT MPC4 ECL1002” value is listed as “X (X = MPC@4 ≤ 5 μg/mL)”. The “AZT MPC4 SHV-5 ec308” value in [12] is listed as “X (X = MPC@4 ≤ 5 μg/mL)”. Moreover, the “AZT MPC4 TEM-10 ec302” value in [13] is listed as “X (X = MPC@4 ≤ 5 μg/mL)”. Besides, the “AZT MPC4 KPC-2 KP1004” value in test [14] is recorded as “X (X = MPC@4 ≤ 5 μg/mL)”. The “AZT MPC4 CMY-6 EC1010” value in test [15] is “X (X = MPC@4 ≤ 5 μg/mL)”. In addition, in test [16], the “AZT MPC4 SHV-12 KP1010” value is on record as “X (X = MPC@4 ≤ 5 μg/mL)”. The “AZT MPC4 CTX-M-15 KP1009” value in [17] is “X (X = MPC@4 ≤ 5 μg/mL)”. Besides, the “TIG MPC4 CTX-M-14 KP1005” value in [18] is reported as “Y (Y = 5 μg/mL < MPC@4 ≤ 20 μg/mL)”.

Regarding `CN(C)CCOc1ccc2c(c1C(=O)[O-])O[B-](O)(O)CC2.[Na+].[Na+]` [Compound 48, Disodium; 8-[2-(dimethylamino)ethoxy]-4,4-dihydroxy-5-oxa-4-boranuidabicyclo[4.4.0]deca-1(6),7,9-triene-7-carboxylate], the “BPM MPC1 KP1004 KPC-2” value in [1] was “X (X = MPC@1 ≤ 5 μg/mL)”. The “BPM MPC1 OXA-48 KP1086” value in [2] is “X (X = MPC@1 ≤ 5 μg/mL)”. Also, in test [3], the “MPM MPC8 AB1053 OXA-72” value is reported as “X (X = MPC@1 ≤ 5 μg/mL)”. In addition, the “MPM MPC8 AB1054 OXA-23” value in [4] was “Y (Y = 5 μg/mL < MPC@1 ≤ 20 μg/mL)”. The Ki is below 100 nM in [5] and 100 to 1000 nM in [10]. In addition, the “Ki (P99, NCF), uM” value in test [6] was “Y (key: X = Ki ≤ 0.1 μM; Y = 0.1 μM < Ki ≤ 1 μM; Z = Ki > 1 μM)”. For the same molecule, the “Ki (CTX-M-14, NCF), uM” value in [7] is given as “X (X = Ki ≤ 0.1 μM)”. Besides, the “Ki (OXA-48, NCF), uM” value in test [8] is recorded as “X (X = Ki ≤ 0.1 μM)”. Further, the “Ki (KPC-2, NCF), uM” value in test [9] was “X (X = Ki ≤ 0.1 μM)”. The “AZT MPC4 ECL1002” value in test [11] is recorded as “Y (Y = 5 μg/mL < MPC@4 ≤ 20 μg/mL)”. In addition, in test [12], the “AZT MPC4 SHV-5 ec308” value is on record as “Y (Y = 5 μg/mL < MPC@4 ≤ 20 μg/mL)”. Also, the “AZT MPC4 TEM-10 ec302” value in test [13] is on record as “Y (Y = 5 μg/mL < MPC@4 ≤ 20 μg/mL)”. Besides, the “AZT MPC4 KPC-2 KP1004” value in [14] is “X (X = MPC@4 ≤ 5 μg/mL)”. Also, the “AZT MPC4 CMY-6 EC1010” value in test [15] is reported as “X (X = MPC@4 ≤ 5 μg/mL)”. Further, the “AZT MPC4 SHV-12 KP1010” value in [16] is reported as “X (X = MPC@4 ≤ 5 μg/mL)”. Also, the “AZT MPC4 CTX-M-15 KP1009” value in [17] is listed as “Y (Y = 5 μg/mL < MPC@4 ≤ 20 μg/mL)”. The “TIG MPC4 CTX-M-14 KP1005” value in test [18] is “Z (Z = MPC@4 > 20 μg/mL)”.
